From US20060127505A1, “Anti-inflammatory formulations” (priority 2002, published 2006)

How the values were obtained:
Format in all cases: cell-based
[1] = test system: CD3+HLA-DR+ lymphocytes in human PBMC; experiment: PHA-mediated induction of CD3+HLA-DR+ lymphocytes in human PBMC (Example 8); conditions: PHA 50 μg/ml, 24 hours
Procedure: Cells from 3-12 asthma patients were cultured 24 hours with 50 μg/ml PHA. PBMC evaluated by 2-color flow cytometry were gated for CD3+ and analyzed for CD3+CD25+ or CD3+HLA-DR+ as a percentage of the CD3+ population. Results are reported as stimulation indices (SI) calculated as the ratio of % CD3+CD25+ cells or % CD3+HLA-DR+ cells in fully-stimulated cultures to % CD3+CD25+ or % CD3+HLA-DR+ respectively in cells treated with PHA plus ASX, GB, or combinations thereof.

TNF-α = TNF-α expression by PHA-stimulated human PBMC, ELISA of supernatant; conditions: PHA 50 μg/ml, 24 hours; 10^−6 M
Procedure: PBMC (2×10^6/ml) from 2 donors were stimulated with 50 μg/ml, PHA; or with astaxanthin (10^−6 M); or with the ginkgolide BN52021 (GB) (10^−4 M); or with a combination of astaxanthin (10^−6 M) plus GB (10^−4 M); or with media. Cells were cultured 24 hours at 37° C., 5% CO2 and analyzed by ELISA for supernatant concentration of TNF-α. Each data point is the mean of triplicate samples.

[2] = test system: CD3+CD25+ cells in human PBMC; experiment: T lymphocyte activation (CD3+CD25+) in PHA-stimulated PBMC of asthma patients (Example 6); conditions: PHA 50 μg/ml, 24 hours; 10^−7 M
Procedure: Experiments were carried out to determine whether formulations based on the platelet activating factor receptor (PAFR) antagonist and free radical scavenger Ginkgolide B (GB) in combination with the antioxidant carotenoid astaxanthin (ASX) suppress T cell activation in the same dose range as two commonly-used antihistamines: cetirizine dihydrochloride (CTZ/Zyrtec) and azelastine ([…]). […] Results are reported as stimulation indices (SI) of % CD3+CD25+ cells in cultures treated with PHA alone to % CD3+CD25+ cells in each drug-supplemented culture. […] Subjects for this study included 12 patients diagnosed with atopic asthma, 7 male and 5 female, ranging in age from 21 to 40 years (mean 28±1.8 years). Disease duration ranged from 2 to 12 years. Atopy was defined on the basis of one or more positive skin prick tests to a range of 20 allergens. None of the patients had received systemic therapy for at least 6 weeks prior to blood collection. The mean serum IgE was 335 (170-480) IU/ml. Venous blood for each subject was collected in polyethylene tubes containing EDTA during a one hour morning time interval. PBMC were separated by Ficoll-paque (Pharmacia, Uppsala, Sweden) density gradient centrifugation. Cells were washed and suspended in RPMI 1640 medium (Gibco BRL, Gaithersburg, Md.) at density of 1×10^6 cells/ml. PBMC were stimulated with 50 μg/ml Phytohemaglutinin (PHA) (Sigma Immunopharmaceuticals, St. Lous Mo.), or PHA plus 10^-8-10^-5 M astaxanthin (Natural Alternatives International (NAI) Inc., San Marcos Calif.); or ginkgolide B 10^-8-10^-6 M (NAI San Marcos Calif.); or selected combinations of ASX plus GB. Comparison of ASX and GB effects on T cell activation were made with two other pharmacological agents with anti-asthmatic properties by treating cells with 10^-7-10^-4 M cetirizine dihydrochloride (Pfizer Pharmaceuticals, Norwich Conn.); or 10^-7-10^-4 M azalestine hydrochloride (Wallace Pharmaceuticals, Somerset N.J.), followed by evaluation of cultures for the same biological endpoints as ASX/GB-treated cells. Each reagent was added at the outset of a 24 hours culture period, followed by harvest of cellular fraction for immunophenotyping studies. […] Two-color Flow cytometry was conducted using a Coulter Epics XL automated flow cytometer (Coulter Scientific, Hialeah, Fla., USA). Isotypic controls for the monoclonal antibodies (mAb) used to detect antigens of interest were established for each cell preparation. Positive analysis regions for cells expressing specific surface markers were set against controls and specific binding of fluorophore-conjugated mAb was analyzed by cytofluorography according to standard methods recommended by the manufacturer. Lymphocyte subpopulations were identified by position on forward and side scatter plots and live-gated. Expression of each antigen was reported as percentage cells positive for a particular T cell subpopulation defined by expression of CD3 (T lymphocyte marker) plus CD25, plus or minus standard error. Statistical analysis was performed using an independent t-test. All statistical analyses were performed using the SPSS for Windows statistical package (Norusis/SPSS, Inc.). […] The capacity of formulations evaluated in this study to suppress immune activation was measured as a stimulation index (SI), defined as the ratio of […].

**Q.** With CC1=C(/C=C/C(C)=C/C=C/C(C)=C/C=C/C=C(C)/C=C/C=C(C)/C=C/C2=C(C)C(=O)[C@@H](O)CC2(C)C)C(C)(C)C[C@H](O)C1=O [astaxanthin, 3,3′-dihydroxy-4,4′-diketo-B-carotene] as the molecule, how does the “CD3+HLA-DR+ Stimulation Index” value ([1]; 10^−4 M) read?
**A.** 0.85 ± 0.18

**Q.** What about the “CD3+HLA-DR+ Stimulation Index” value ([1]; 10^−5 M) of the same molecule?
**A.** 0.79 ± 0.19

**Q.** And the “CD3+HLA-DR+ Stimulation Index” value ([1]; 10^−6 M)?
**A.** 0.83 ± 0.23

**Q.** And the “CD3+HLA-DR+ Stimulation Index” value ([1]; 10^−7 M)?
**A.** 0.71 ± 0.23

**Q.** And the “CD3+HLA-DR+ Stimulation Index” value ([1]; 10^−8 M)?
**A.** 0.68 ± 0.16

**Q.** What about the TNF-alpha (TNF-α) of the same molecule?
**A.** 781.34 pg/mL

**Q.** What about the “SI (CD3+CD25+)” value [2] of the same molecule?
**A.** 0.89±0.06
